Measured values from PubChem BioAssay AID1963860 (Molecular Pharmacology Branch, DTP, NCI, 2024).

Test system: CN0375-F725-PDC KRAS spheroid viability
Experiment: Anticancer human tumor CN0375-F725-PDC patient-derived colon carcinoma cell line growth inhibition [KRAS2]
Conditions: spheroids with HUVEC and MSC; for viability, T/C: stronger effect = lower value
Procedure, shortened: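 Combination screen of spheroid viability in tumor-cell co-cultures with endothelial (HUVEC) and mesenchymal stem cell stroma. Each agent was tested in half-log dilutions, topping at clinical Cmax or at 10 microM without a known Cmax.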

[1] = curve of first compound, second compound 0.1 µM
[2] = curve of first compound, second compound 0.316 µM
[3] = curve of first compound, second compound 1 µM
[4] = curve of first compound, second compound 3.16 µM
[5] = curve of first compound, second compound 10 µM
[6] = second compound 0.1 µM, first compound 0.0316 µM
[7] = second compound 0.1 µM, first compound 0.1 µM
[8] = second compound 0.1 µM, first compound 0.316 µM
[9] = second compound 0.1 µM, first compound 1 µM
[10] = second compound 0.1 µM, first compound 3.16 µM
[11] = second compound 0.1 µM, first compound 10 µM
[12] = second compound 0.316 µM, first compound 0.0316 µM
[13] = second compound 0.316 µM, first compound 0.1 µM
[14] = second compound 0.316 µM, first compound 0.316 µM
[15] = second compound 0.316 µM, first compound 1 µM
[16] = second compound 0.316 µM, first compound 3.16 µM
[17] = second compound 0.316 µM, first compound 10 µM
[18] = second compound 1 µM, first compound 0.0316 µM
[19] = second compound 1 µM, first compound 0.1 µM
[20] = second compound 1 µM, first compound 0.316 µM
[21] = second compound 1 µM, first compound 1 µM
[22] = second compound 1 µM, first compound 3.16 µM
[23] = second compound 1 µM, first compound 10 µM
[24] = second compound 3.16 µM, first compound 0.0316 µM
[25] = second compound 3.16 µM, first compound 0.1 µM
[26] = second compound 3.16 µM, first compound 0.316 µM
[27] = second compound 3.16 µM, first compound 1 µM
[28] = second compound 3.16 µM, first compound 3.16 µM
[29] = second compound 3.16 µM, first compound 10 µM
[30] = second compound 10 µM, first compound 0.0316 µM
[31] = second compound 10 µM, first compound 0.1 µM
[32] = second compound 10 µM, first compound 0.316 µM
[33] = second compound 10 µM, first compound 1 µM
[34] = second compound 10 µM, first compound 3.16 µM
[35] = second compound 10 µM, first compound 10 µM
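Note: spheroids exposed to agents for 7 days.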

Row | SMILES | IC50 [1] | IC50 [2] | IC50 [3] | IC50 [4] | IC50 [5] | viability, T/C [6] | viability, T/C [7] | viability, T/C [8] | viability, T/C [9] | viability, T/C [10] | viability, T/C [12] | viability, T/C [13] | viability, T/C [14] | viability, T/C [15] | viability, T/C [16] | viability, T/C [18] | viability, T/C [19] | viability, T/C [20] | viability, T/C [21] | viability, T/C [22] | other results
1 | CC(=O)Nc1cccc(-n2c(=O)n(C3CC3)c(=O)c3c(Nc4ccc(I)cc4F)n(C)c(=O)c(C)c32)c1 |  |  |  |  |  |  |  |  |  |  |  |  |  |  |  |  |  |  |  |  | viability, T/C (compound 0.0001 µM): 97.8% [middle of 5 runs]; viability, T/C (compound 0.000316 µM): 84.8% [middle of 5 runs]; viability, T/C (compound 0.001 µM): 71.6% [middle of 5 runs]; viability, T/C (compound 0.00316 µM): 59.6% [middle of 5 runs]; viability, T/C (compound 0.01 µM): 47.5% [middle of 5 runs]; viability, T/C (compound 0.0316 µM): 34.5% [middle of 5 runs]; IC50 (curve of compound): 7.97 nM [middle of 5 runs]
2 | CC1OCC2(CCN(c3cnc(Sc4ccnc(N)c4Cl)c(N)n3)CC2)C1N (configuration not stated) + CNCc1ccccc1-c1csc(C(C)Nc2nc(C)nc3cc(OC)c(OC)cc23)c1 | > 10 µM | > 10 µM | 0.15 µM | < 0.0316 µM | < 0.0316 µM | 95.7% | 86.1% | 75.8% | 78.5% | 76.3% | 94.2% | 83.7% | 73.7% | 76.2% | 67.2% | 55.3% | 53.7% | 43.7% | 39% | 27.7% | viability, T/C [11]: 61.4%; viability, T/C [17]: 50.5%; viability, T/C [23]: 11.5%; viability, T/C [24]: 0.54%; viability, T/C [25]: 0.29%; viability, T/C [26]: 0.49%; viability, T/C [27]: 0.25%; viability, T/C [28]: 0.31%; viability, T/C [29]: 0.37%; viability, T/C [30]: 0.19%; viability, T/C [31]: 0.41%; viability, T/C [32]: 0.27%; viability, T/C [33]: 0.2%; viability, T/C [34]: 0.53%; viability, T/C [35]: 0.17%
3 | CC(C)NCC(C(=O)N1CCN(c2ncnc3c2C(C)CC3O)CC1)c1ccc(Cl)cc1 (configuration not stated) + C=CC(=O)N1CCN(c2nc(=O)n(-c3c(C)ccnc3C(C)C)c3nc(-c4c(O)cccc4F)c(F)cc23)C(C)C1 | > 10 µM | > 10 µM | > 10 µM | > 10 µM | > 10 µM | 108% | 106% | 91.4% | 88.9% | 87.8% | 102% | 105% | 92.4% | 89% | 89.6% | 103% | 110% | 98.8% | 86.3% | 84.4% | viability, T/C [11]: 80.1%; viability, T/C [17]: 75.9%; viability, T/C [23]: 77%; viability, T/C [24]: 106%; viability, T/C [25]: 111%; viability, T/C [26]: 101%; viability, T/C [27]: 87.7%; viability, T/C [28]: 84.2%; viability, T/C [29]: 73%; viability, T/C [30]: 101%; viability, T/C [31]: 95.7%; viability, T/C [32]: 88.7%; viability, T/C [33]: 72%; viability, T/C [34]: 71.9%; viability, T/C [35]: 55.7%
4 | CC(=O)OC12COC1CC(O)C1(C)C(=O)C(O)C3=C(C)C(OC(=O)C(O)C(NC(=O)OC(C)(C)C)c4ccccc4)CC(O)(C(OC(=O)c4ccccc4)C21)C3(C)C (configuration not stated) + C=CC(=O)N1CCN(c2nc(=O)n(-c3c(C)ccnc3C(C)C)c3nc(-c4c(O)cccc4F)c(F)cc23)C(C)C1 | > 3.16 µM | > 3.16 µM | > 3.16 µM | > 3.16 µM | > 3.16 µM | 97.4% | 88.5% | 86.6% | 86.5% | 76.8% | 97.8% | 94.4% | 93.1% | 85.7% | 81.7% | 98.2% | 91.8% | 87.1% | 88% | 80% | viability, T/C (second compound 0.1 µM, first compound 0.01 µM): 100%; viability, T/C (second compound 0.316 µM, first compound 0.01 µM): 99.8%; viability, T/C (second compound 1 µM, first compound 0.01 µM): 96.6%; viability, T/C (second compound 3.16 µM, first compound 0.01 µM): 97.8%; viability, T/C [24]: 93.8%; viability, T/C [25]: 90.5%; viability, T/C [26]: 88.2%; viability, T/C [27]: 86.1%; viability, T/C [28]: 89.5%; viability, T/C (second compound 10 µM, first compound 0.01 µM): 93.8%; viability, T/C [30]: 92.5%; viability, T/C [31]: 88.1%; viability, T/C [32]: 84.9%; viability, T/C [33]: 74.8%; viability, T/C [34]: 79.9%
5 | O=C(c1cc(Cc2n[nH]c(=O)c3ccccc23)ccc1F)N1CCN(C(=O)C2CC2)CC1 + CNCc1ccccc1-c1csc(C(C)Nc2nc(C)nc3cc(OC)c(OC)cc23)c1 | > 10 µM | > 10 µM | > 10 µM | < 0.0316 µM | < 0.0316 µM | 112% | 109% | 100% | 107% | 104% | 108% | 105% | 96.8% | 92.3% | 96.9% | 96.9% | 94.8% | 89.7% | 81% | 87.8% | viability, T/C [11]: 95.5%; viability, T/C [17]: 87.7%; viability, T/C [23]: 79.6%; viability, T/C [24]: 0.68%; viability, T/C [25]: 0.36%; viability, T/C [26]: 0.74%; viability, T/C [27]: 0.33%; viability, T/C [28]: 0.37%; viability, T/C [29]: 0.55%; viability, T/C [30]: 0.64%; viability, T/C [31]: 0.22%; viability, T/C [32]: 0.57%; viability, T/C [33]: 0.37%; viability, T/C [34]: 0.19%; viability, T/C [35]: 0.33%
